This note sets out measurements from EP4775586A1, “DEUTERATED TETRACYCLIC DERIVATIVE AND USE THEREOF” (priority 2023, dated 2025).

A word on the Cmax: it is the maximum level reached in the sampled fluid or tissue. The Tmax is the time from dosing to the highest level. As usually defined, the MIC90 is the lowest concentration that inhibits either 90% of growth or 90% of the strains tested, depending on the study. A higher MIC90 goes with weaker potency.

One series concerns CYP2A6. Type of series: in vitro ADME, mouse. How it is done:
(§1) This example was to detect the CYP450 metabolic enzyme phenotype of the deuterated compound YF027 and its non-deuterated control compound A (using a CYP450 enzyme metabolic phenotype research kit (recombinant enzymatic method/7 enzymes)-mouse liver microsome test).
(§2) • a. The test compound was prepared into a 40 mM stock solution for later use. 2.5 µL of the stock solution was taken and diluted with DMSO to a test compound concentration of 200 µM, and the compound at this concentration was used in subsequent tests. • b. The working solution concentration of the mixed positive substrates, phenacetin and testosterone, was 200 µM.
(§3) 1) The components of the kit were thawed in an ice bath. The mixture was well mixed by vortexing and then placed on ice for later use. 2) In addition to the microsomes, the other components of the incubation systems were mixed according to the ratios and well mixed by pipetting, and the ratios of the incubation systems are shown below; Table 6. Incubation system of positive control group
(§4) The inhibitors were quinidine, naphthoflavone, pilocarpine, sodium diethyldithiocarbamate, ticlopidine, ketoconazole, and sulfaphenazole, which corresponded to the inhibition of CYP450 enzymes CYP2D6, CYP1A2, CYP2A6, CYP2E1, CYP2C19, CYP3A4, and CYP2C9, respectively. Table 9. Incubation system of negative control group
(§5) 3) Except for the negative control group (Table 9), 3.125 µL of liver microsomes was added to each of the above incubation systems to prepare 125 µL of reaction solution. The reaction solutions were well mixed by vortexing, and then placed in a water bath at 37 °C to initiate the reaction. A timer was set. 4) At time points of 0 min and 90 min, 50 µL of reaction solution was taken, and a pre-cooled acetonitrile solution was added to the reaction solution. The mixture was quickly well mixed by vortexing to stop the reaction. 5) Mass spectrometry detection pretreatment of reaction solution
(§6) The reaction solution was cryopreserved in a refrigerator at -80 °C overnight and then centrifuged for mass spectrometry detection.
(§7) The detection values after 90 min of incubation were processed as ratios relative to the 0-min detection values to determine the metabolic rate of the compounds in different experimental groups after 90 min. The metabolic inhibition rate was then calculated using the formula: Inhibition rate (%) = (1 - metabolic rate of sample with inhibitor/metabolic rate of sample without inhibitor) × 100%, as shown in Table 10 below. […] The metabolic inhibition rate reflects the effect on the metabolic elimination of the drug after adding different selective inhibitors. Therefore, when the metabolic inhibition rate of a specific enzyme is ≥ 25%, the contribution of the specific enzyme to the clearance of the drug under study can be inferred to be ≥ 25% based on the results of the in vitro metabolism study.

The next series has as its system CYP2C19. It is filed as in vitro ADME, mouse. As for the experimental part: as §1, §2, §3, §4, §5, §6, §7
In another series the test system is CYP3A4. Type of series: in vitro ADME, mouse. As for the experimental part: as §1, §2, §3, §4, §5, §6, §7
The test system of the next series is CYP2D6. It is filed as in vitro ADME, mouse. How it is done: as §1, §2, §3, §4, §5, §6, §7
The test system of the next series is CYP2C9. It is filed as in vitro ADME, mouse. As for the experimental part: as §1, §2, §3, §4, §5, §6, §7
The nature of series [1]: Pharmacokinetics and lung tissue distribution in mice, LC-MS/MS. It is filed as in vivo, Balb/C mice. To be noted: mouse, in vivo, po, 100 mg/kg. How it is done: In this example, the pharmacokinetic parameters and lung tissue distribution of the deuterated compounds YF027, YF032, YF036, and YF044 and their respective non-deuterated control compounds (A, B, C, and D) were determined.
Balb/C mice, male (1 group at each time point, 5 mice per group, 55 mice per compound in total), 7-8 weeks old, weighing about 20 g, animal source: Beijing Vital River Laboratory Animal Technology Co., Ltd.
The test compound was completely dissolved in an 8% Tween-80 aqueous solution. A 10 mg/mL drug liquid was prepared for intraperitoneal injection and intragastric administration.
Single intragastric administration was performed at a dose of 100 mg/kg. The pharmacokinetic differences between the deuterated compounds YF027, YF032, YF036, and YF044 and their respective non-deuterated controls A, B, C, and D were compared.
The mice were fasted overnight before administration. In the experiment, orbital venous blood and lung tissue were collected from the mice at time points of no administration group (0 min) and 10 min, 20 min, 30 min, 1 h, 2 h, 3 h, 4 h, 6 h, 8 h, and 24 h after intragastric administration, and about 300 µL of blood was collected from the eyeballs each time.
The collected blood sample was placed in an anticoagulation tube, and quickly inverted and mixed well. The tube was temporarily placed on ice after being labeled. The blood samples temporarily stored on ice were subjected to low-temperature centrifugation within 1 h at 4 °C at 3000 rpm for 10 min. The supernatant obtained after centrifugation was plasma. The plasma was transferred to a new centrifuge tube and stored in a refrigerator at -80 °C for subsequent detection.
The lung tissues of the mice were collected, washed with pre-cooled normal saline to remove the residual blood and tissue fluid, dried with absorbent paper, weighed with a balance, and placed into a centrifuge tube. The tubes were marked and stored in a refrigerator at -80 °C.
The concentrations of the compounds of the present disclosure and control compounds in plasma and lung tissue were determined using LC-MS/MS. Table 2. Pharmacokinetic parameters of compound YF027 of the present disclosure and control compound A

A further series addresses T1, CYP1A2 (Mus musculus, UniProt P00186).
T1 construct: from tissue; host or cells: mouse liver microsomes (component of a kit)
T1 sequence (P00186 1-513): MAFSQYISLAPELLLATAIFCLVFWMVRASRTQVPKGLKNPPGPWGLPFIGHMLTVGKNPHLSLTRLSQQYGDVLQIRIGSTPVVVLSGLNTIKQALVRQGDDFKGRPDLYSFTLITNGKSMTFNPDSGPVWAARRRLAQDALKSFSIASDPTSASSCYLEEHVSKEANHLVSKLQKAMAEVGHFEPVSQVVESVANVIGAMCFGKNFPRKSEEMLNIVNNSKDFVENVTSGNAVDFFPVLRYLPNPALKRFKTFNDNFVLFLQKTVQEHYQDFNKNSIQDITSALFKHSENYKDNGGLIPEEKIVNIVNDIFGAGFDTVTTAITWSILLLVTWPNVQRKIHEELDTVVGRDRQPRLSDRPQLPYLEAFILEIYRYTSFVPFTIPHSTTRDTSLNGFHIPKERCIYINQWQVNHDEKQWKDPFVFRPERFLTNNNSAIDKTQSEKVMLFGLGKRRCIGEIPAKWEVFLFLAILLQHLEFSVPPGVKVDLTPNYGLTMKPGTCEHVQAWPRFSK
It is filed as in vitro ADME. As for the experimental part: as §1, §2, §3, §4, §5, §6
The detection values after 90 min of incubation were processed as ratios relative to the 0-min detection values to determine the metabolic rate of the compounds in different experimental groups after 90 min. The metabolic inhibition rate was then calculated using the formula: Inhibition rate (%) = (1 - metabolic rate of sample with inhibitor/metabolic rate of sample without inhibitor) × 100%, as shown in Table 10 below. […] The metabolic inhibition rate reflects the effect on the metabolic elimination of the drug after adding different selective inhibitors. […]

In series [2] the test system is Mycobacterium tuberculosis H37Rv. Briefly: Minimum inhibitory concentration (MIC90) against Mycobacterium tuberculosis H37Rv, Middlebrook 7H9, 96-well plate, 15 days. Type of series: cell-based. To be noted: Mycobacterium tuberculosis H37Rv, 15 days of incubation, 90% inhibition of growth, visual reading.
The test system is the same in series [3]. It is filed as in vivo, BALB/c mice.

As for `Cl.[2H]C1([2H])CCCC([2H])([2H])N1C([2H])([2H])c1c(O)cc(C(C)(C)C)c2oc3c4ccc(O)cc4oc(=O)c3c12` [YF027, 10-(tert-Butyl)-3,8-dihydroxy-7-((piperidin-1-yl-2,2,6,6-d4)methyl-d2)-6H-benzofuran[3,2-c]chromen-6-one hydrochloride], the Inhibition rate with CYP2A6 is recorded as 14.0%; in the series on CYP2C19, -5.7%; in the series with CYP3A4, 16.5%; in the series with CYP2D6 it was -1.3%; in the series with CYP2C9, 3.7%; at CYP1A2 it was 0.4%. The “AUC0-∞” value in [1] stood at 380.76 ng·h/mL. Besides, the CL in series [1] was found to be 262.63 L/h/kg. Moreover, the Cmax in [1] turned out to be 100.26 ng/mL. Moreover, the “Lung tissue distribution Cmax” value in [1] was 1406.73 ng/g. Moreover, the Tmax in series [1] stood at 0.5 h. This molecule had a t1/2 in series [1] of 1.83 h. Also, the AUC0-t in [1] (24 h) came to 367.05 ng·h/mL. The MIC90 in series [2] is at most 3.9 ng/mL. For the same molecule, the “pulmonary Mycobacterium tuberculosis clearance rate” value in series [3] (100 mg/kg intragastrically, 4 weeks, mice) was 99.0%. Besides, the “reduction of pulmonary bacterial load” value in series [3] (mouse, in vivo) was determined as 1.98 log.
